Reference: patent US20260364213A1, “RADIOLABELED COMPOUNDS OF TRIMETHOPRIM AND USES THEREOF” (THE TRUSTEES OF THE UNIVERSITY OF PENNSYLVANIA, priority 2023, published 2026)
Where two headings read alike, the source gives them in different places.

Key:
OVCAR8-eDHFR-Luc cells = test: Kill assay (MTT) in OVCAR8-eDHFR-Luc cells; type: cell-based, human
Experimental: (§1) Following the same uptake protocol till washing after the third wash the cells were counted using cell counter and they were diluted to generate even number of cells/mL. […] We've applied the same blocked conditions used in the uptake assay. […] Then cells will be re-distributed into 96 well plates (2,000 cells/well) with fresh media to monitor cell proliferation by MTT assay on days 1, 3, 7 and 10. A total of 9 wells (3×3) were measured on the plate per sample per time point. To complete the assay cell media was removed and replaced with 50 μL of serum free media and 50 μL of MTT reagent. The plates were covered with tin foil and incubated at 37 °C for 3 hours. The plates were shaken at 200 rpm at 37 °C for 15 min. Using the microplate plate reader, sample absorbance was measured at 590 nm for 600 ms. Controls included [^131I]NaI treated cells and blocking with 10 μM parent TMP (unlabeled). An analogous procedure was used for the OVCAR8-eDHFR-Luc kill assay with different doses (1.85-37 MBq) and treatment times.
To investigate the therapeutic potential of m[^131I]mI-TMP 5b in tumor cell lines, OVCAR8 eDHFR+ cells were exposed to varying doses (ranging from 1.85-37 MBq) of the radiotracer of 5b at different incubation times. Different conditions were employed to assess the selective therapeutic effect of the radio tracer on eDHFR+ cells. To determine the specific killing of eDHFR+ tumor cells, blocked conditions were analyzed. The cell viability of compound 5b-treated cells was also compared with the cells exposed to [^131I]I—Na. Additionally, untreated cells were used as controls. The MTT assay was used to measure the cell viability of the cells under the aforementioned conditions on days 1, 3, 7, and 12.
OVCAR8-eDHFR-Luc+ cells were treated with 1.85 and 18.5 MBq of m[^131I]mI-TMP 5b and [^131I]I—Na, incubated for 1 hour. […] The cell viability of the compound 5b-treated cells was similar to cells under blocked, [^131I]NaI, and no drug conditions. See, FIG. 2A. […] See, FIG. 2B. Based on the results obtained, a continued dose escalation was considered to better understand the therapeutic window. Finally, OVCAR_eDHFR+ cells were tested with 37 MBq dose of m[^131I]mI-TMP.

HCT116 eDHFR-Luc cells = test: Kill assay (MTT) in HCT116 eDHFR-Luc cells; type: cell-based, human; conditions: 3.7 MBq; for cell growth at day 10: in comparison to blocked conditions
Experimental: as §1
Despite lower uptake in HCT116 cells, cell viability was measured on days 1, 3, 7, and 10 using the MTT assay and compared with blocked, no drug and [^131I]I—Na treated cells. […] See, FIG. 3A. […] See, FIG. 3B.

eDHFR [1] = biological target: T1, eDHFR (Escherichia coli, UniProt P0ABQ4)
T1 sequence (P0ABQ4 1-159): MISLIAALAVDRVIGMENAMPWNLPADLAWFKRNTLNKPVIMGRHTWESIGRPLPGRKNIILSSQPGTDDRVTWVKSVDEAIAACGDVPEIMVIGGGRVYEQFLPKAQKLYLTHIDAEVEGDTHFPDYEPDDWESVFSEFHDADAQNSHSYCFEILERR

eDHFR [2] = biological target: T1, eDHFR; type: cell-based; design: in CAR T cells fused to C-terminus of CD3zeta of FAP-CAR; conditions: for uptake in eDHFR+ CAR T cells compared to NTD cells: 0.074 MBq, 60 min at 37 °C, FAP-CAR-eDHFR (DF-BFP), day 8 of T cell expansion, 60 min
Experimental: Primary human T cells were sourced from healthy volunteers through the Human Immunology Core at the University of Pennsylvania. All specimens were obtained following institutional review board-approved protocols and informed consent from the volunteers. Bulk T cells were activated and expanded following established methods and subsequently, either pTRPE-FAP CAR-eDHFR DF or pTRPE-FAP CAR-eDHFR DF-T2A-BFP (7) lentivirus was introduced to the activated T cells 16 hours post-activation at a multiplicity of infection (MOI) of 5. The T cells were then expanded for a period of 10 days. Transduced CAR T cells were incubated with Alexa Fluor 647 AffiniPure F(ab′2) fragment goat anti-mouse immunoglobulin G (Jackson ImmunoResearch Laboratories) for half an hour at room temperature. Following incubation, stained cells were washed 3*100 μL with FACS buffer (2% bovine serum albumin in PBS, Invitrogen). The washed cells were analyzed using a flow cytometer (LSR II, BD Biosciences) to detect CAR and/or BFP expression. FlowJo software was used to analyze the flow data.
Next, the uptake radio-iodinated probe 5b was evaluated in primary human CAR-T cells. CAR-T cells were engineered to express eDHFR which is fused directly to the C-terminus of the signaling CD3zeta domain of the fibroblast activation protein (FAP) CAR. […] After incubation, the cells were centrifuged at 1200 rpm and were washed thrice with cold PBS (Corning). Subsequently, the cell pellet was resuspended in 1% DMSO/PBS and divided into 3 technical replicates of 100 μL each. The uptake of radiotracer was quantified using a gamma counter (PerkinElmer). The final uptake was expressed as a ratio of % ID normalized per […] cells (% ID/million cells). An about 15 fold more uptake in eDHFR+ cells was observed as compared to NTD cells. See, FIGS. 6A and 6B. The specificity is further assessed by comparing with FAP_CAR_eDHFR(df) which has low eDHFR expression. Less uptake of radiotracer 5b was observed as compared to high expressing eDHFR FAP_CARs.
[^131I]I-TMP in CAR T cells. […] In this case, two different fibroblast activation protein (FAP) CAR T cell constructs that express eDHFR fused directly to the C-terminus of the signaling CD3zeta domain of the CAR were used (7) (FIGS. 13F and 13G). […] There was ~15-fold more uptake in FAP-CAR-eDHFR-DF-BFP in comparison to NTD cells at day 8 of T cell expansion (FIG. 13A).

eDHFR [3] = biological target: T1, eDHFR; type: cell-based; conditions: I45 mesothelioma cells, eDHFR-FLAG vs WT; 60 min at 37 °C
Excerpt: See, FIG. 1E. […] See, FIG. 1F.

| SMILES | cytotoxic effect / cell viability (OVCAR8-eDHFR-Luc cells; 1.85 MBq, 1 hour) | cell viability under blocked conditions (OVCAR8-eDHFR-Luc cells; 18.5 MBq, 1 h, cells treated with the blocking agent (10 μM TMP)) | cytotoxic effect / cell viability (OVCAR8-eDHFR-Luc cells; 18.5 MBq, 1 h, viability to day 12) | cytotoxic effect (HCT116 eDHFR-Luc cells; 2 hours incubation) | cell viability at day 7 (HCT116 eDHFR-Luc cells; 4 hours incubation) | cytotoxic effect (HCT116 eDHFR-Luc cells; 4 hours incubation, compared to blocked cells) | cell growth at day 10 (HCT116 eDHFR-Luc cells; 4 hours incubation) | uptake under blocked conditions (eDHFR [1]; OVCAR8 eDHFR cells preincubated with excess of TMP) | retention in washout study (eDHFR [2]; FAP_CAR_eDHFR cells, after 5 h) | uptake in FAP_CAR_eDHFR(df) with low eDHFR expression (eDHFR [2]; compared to high expressing eDHFR FAP_CARs) | uptake in eDHFR+ cells compared to wild type (eDHFR [3]) | cytotoxic effect (OVCAR8-eDHFR-Luc cells; 37 MBq, also with 20 minutes incubation, blocked cells behaved the same) | tracer uptake in eDHFR+ cells compared to WT cells (eDHFR [1]; OVCAR8-eDHFR-Luc vs OVCAR8 WT, 0.037 MBq, 1 hour) | uptake in eDHFR+ CAR T cells compared to NTD cells (eDHFR [2]) | uptake in eDHFR+ CAR T cells compared to NTD cells (eDHFR [2]; listed as [^131I]I-TMP) | uptake in CAR T cells, earlier day of expansion (eDHFR [2]; earlier day of expansion (day 5)) |
| --- | --- | --- | --- | --- | --- | --- | --- | --- | --- | --- | --- | --- | --- | --- | --- | --- |
| COc1cc(Cc2cnc(N)nc2N)cc(I)c1OC [[^131I]mI-TMP, 5-(3-iodo-4,5-dimethoxybenzyl)pyrimidine-2,4-diamine] | did not exhibit any cytotoxic effects/decreased viability | comparable viability to those under no treatment or [^131I]I—Na conditions | strong cytotoxic effects, and thus no cell regrowth/significantly lower viability was observed at day 7 and even at day 12 | did not exhibit any cytotoxic effect | did not show any viability on day 7 | demonstrated a cytotoxic effect | mild growth at day 10 | reduced uptake | strong internalization of compound 5b even after 5 h | Less uptake |  |  |  |  |  |  |
| COc1cc(Cc2cnc(N)nc2N)cc([131I])c1OC [[^131I]mI-TMP, 5-(3-iodo-4,5-dimethoxybenzyl)pyrimidine-2,4-diamine] |  |  |  |  | no cell regrowth at day 7 |  | mild regrowth was observed at day 10 and beyond |  |  |  | ~ 80 fold | non-specific cell killing | ~ 25 fold | about 15 fold | ~ 15 fold | ~ 3 fold |
